Converted amounts (≈) assume the structure as drawn. Some results are limits rather than exact numbers.

The record followed here is ChEMBL document CHEMBL1143380, “N-[6-amino-2-(heteroaryl)pyrimidin-4-yl]acetamides as A2A receptor antagonists with improved drug like properties and in vivo efficacy” (J Med Chem, 2009).

For series [1], the target named is T1, Adenosine receptor A1 (Homo sapiens, UniProt P30542).
T1 sequence (P30542 whole entry): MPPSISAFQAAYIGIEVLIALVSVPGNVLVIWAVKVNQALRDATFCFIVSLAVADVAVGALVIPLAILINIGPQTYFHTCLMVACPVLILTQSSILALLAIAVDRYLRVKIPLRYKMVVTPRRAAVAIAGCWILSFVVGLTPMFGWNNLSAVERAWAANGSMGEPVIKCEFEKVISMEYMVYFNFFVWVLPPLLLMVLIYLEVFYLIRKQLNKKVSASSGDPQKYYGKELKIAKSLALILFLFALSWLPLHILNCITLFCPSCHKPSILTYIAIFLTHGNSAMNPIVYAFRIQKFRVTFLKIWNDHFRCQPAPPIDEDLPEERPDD
Nature of the series: Displacement of [3H]DPCPX from human adenosine A1 receptor expressed in HEK293 cells. In kind it is cell-based.

The target in series [2] is T2, Adenosine receptor A2a (Homo sapiens, UniProt P29274). The series can be described thus: Displacement of [3H]ZM241385 from human adenosine A2A receptor expressed in HEK293 cells. The format is cell-based.
T2 sequence (P29274 whole entry): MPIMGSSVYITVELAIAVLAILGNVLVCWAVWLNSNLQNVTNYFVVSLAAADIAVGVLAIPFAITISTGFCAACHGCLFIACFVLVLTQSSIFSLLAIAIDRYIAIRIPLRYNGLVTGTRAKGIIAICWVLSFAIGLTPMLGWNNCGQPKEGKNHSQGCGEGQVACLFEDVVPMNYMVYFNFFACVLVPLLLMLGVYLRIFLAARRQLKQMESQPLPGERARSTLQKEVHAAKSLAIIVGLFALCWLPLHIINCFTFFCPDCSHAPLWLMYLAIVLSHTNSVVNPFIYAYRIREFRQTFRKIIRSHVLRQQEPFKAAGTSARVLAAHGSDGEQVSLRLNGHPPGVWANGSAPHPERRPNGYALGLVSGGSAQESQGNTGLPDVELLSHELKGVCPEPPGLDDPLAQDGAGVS
The species named for series [3] is Homo sapiens. The series can be described thus: Selectivity ratio of Ki for human adenosine A1 receptor to Ki for human adenosine A2A receptor.
The nature of series [4]: Solubility in phosphate buffer at pH 7.2. The format is physicochemical.
Series [5] in a line: Solubility at pH >=2. The format is physicochemical.
The target in series [6] is T2, Adenosine receptor A2a. Nature of the series: Antagonist activity at human adenosine A2A receptor assessed as inhibition of CGS-21680-stimulated cAMP production. The format is functional.
Series [7] is described as follows: Solubility in phosphate buffered saline. In kind it is physicochemical.

Consider `CC(=O)Nc1cc(N2CCCC2)nc(-n2nc(C)cc2C)n1`, for which the Ki in series [1] amounted to 4950 nM; in series [2], 110 nM. Besides, the Ratio Ki in series [3] came out at 45.

In the case of `COC[C@H]1CCCN1c1cc(NC(C)=O)nc(-c2ccc(C)o2)n1`, the values for the Ki in series [1] and in series [2] were 10.5 nM and 2.7 nM, respectively. In addition, the Ratio Ki in series [3] was 4.

In the case of `COC[C@H]1CCCN1c1cc(NC(=O)NC(C)C)nc(-n2nc(C)cc2C)n1`, the Ki was found to be 1280 nM in series [1] and 43 nM in series [2]. The Ratio Ki in series [3] was 29.

For `COC[C@H]1CCCN1c1cc(NC(C)=O)nc(-c2nccs2)n1`, the Ki in series [1] stood at 150 nM; in series [2] it was 20 nM. Besides, the Ratio Ki in series [3] came out at 7.5.

With `COC(=O)[C@H]1CCCN1c1cc(NC(C)=O)nc(-n2nc(C)cc2C)n1`, the Ki in series [1] was 2930 nM; in series [2], 205 nM. Also, in series [3], the Ratio Ki turned out to be 14.

Consider `CC(=O)Nc1cc(N2CCC[C@H]2COc2ccccn2)nc(-n2nc(C)cc2C)n1`, for which the Ki in series [1] came to 12100 nM; in series [2], 439 nM. Also, in series [3], the Ratio Ki was 28.

Consider `CCN(CC)c1cc(NC(C)=O)nc(-n2nc(C)cc2C)n1`, for which the Ki came to 4470 nM in series [1] and 92 nM in series [2]. Also, the Ratio Ki in series [3] worked out at 49.

On to `COC[C@@H]1CCCN1c1cc(NC(C)=O)nc(-c2ccc(C)o2)n1`, for which the Ki in series [1] turned out to be 215 nM; in series [2] it was 119 nM. Moreover, in series [3], the Ratio Ki was determined as 2.

For `COC[C@H]1CCCN1c1cc(NC(C)=O)nc(-c2ccccn2)n1`, the Ki came to 69 nM in series [1] and 46 nM in series [2]. For the same compound, the Ratio Ki in series [3] turned out to be 1.5.

Turning to `CC(=O)Nc1cc(N2CCCC2C)nc(-n2nc(C)cc2C)n1` (centres undefined), the Ki in series [1] was 1040 nM; in series [2] it was 28 nM. In addition, the Ratio Ki in series [3] was found to be 37.

Regarding `COC[C@@H]1CCCN1c1cc(NC(C)=O)nc(-c2cccs2)n1`, the inhibition constant Ki in series [1] worked out at 325 nM; in series [2], 27 nM. Besides, in series [3], the Ratio Ki amounted to 12.

As to `COCCC1CCCCN1c1cc(NC(C)=O)nc(-n2nc(C)cc2C)n1` (single isomer, unassigned), the Ki was found to be 4690 nM in series [1] and 275 nM in series [2]. Moreover, the Ratio Ki in series [3] came out at 17.

For the compound `CC(=O)Nc1cc(N2CCc3ccccc3C2)nc(-n2nc(C)cc2C)n1`, in series [4], the concentration in solution (solubility) was 10 µg/mL (≈ 27.6 µM). The results for the Ki in series [1] and in series [2] were 323 nM and 4.2 nM, respectively. The Ratio Ki in series [3] came out at 77.

Take `COC[C@H]1C[C@H](OC)CN1c1cc(NC(C)=O)nc(-n2nc(C)cc2C)n1`: the results for the Ki in series [1] and in series [2] were 352 nM and 7.5 nM, respectively. Also, in series [3], the Ratio Ki is 47.

Turning to `CC(=O)Nc1cc(N2CCCC2CO)nc(-n2nc(C)cc2C)n1` (single isomer, unassigned), the Ki worked out at 1530 nM in series [1] and 25.8 nM in series [2]. For the same compound, the Ratio Ki in series [3] is 59.

Turning to `COC[C@H]1CCCN1c1cc(NC(=O)OC)nc(-n2nc(C)cc2C)n1`, the figures for the Ki in series [1] and in series [2] were 960 nM and 19 nM, respectively. The Ratio Ki in series [3] was 50.

In series [2], `CC(=O)Nc1cc(-c2ccccc2O)nc(-n2nc(C)cc2C)n1` returned a Ki of 1.9 nM.

For `COc1cncc(-c2cc(NC(C)=O)nc(-n3nc(C)cc3C)n2)c1`, the concentration in solution in series [5] (solubility) was 10 µg/mL (≈ 29.6 µM). Further, the IC50 in series [6] turned out to be 85 nM. Also, the Ratio Ki in series [3] is 82.

As for `COC[C@H]1C[C@@H](OC)CN1c1cc(NC(C)=O)nc(-n2nc(C)cc2C)n1`, the figures for the Ki in series [1] and in series [2] were 620 nM and 23 nM, respectively. For the same compound, the Ratio Ki in series [3] turned out to be 27.

Regarding `COC[C@@H]1CCC(C)N1c1cc(NC(C)=O)nc(-n2nc(C)cc2C)n1` (some centres undefined), the Ki amounted to 1640 nM in series [1] and 47 nM in series [2]. The Ratio Ki in series [3] is 35.

Turning to `COC[C@@H]1CCCN1c1cc(NC(C)=O)nc(-c2nccs2)n1`, the Ki was determined as 354 nM in series [1] and 15 nM in series [2]. In series [3], the Ratio Ki stood at 23.

Regarding `COC[C@@H]1CCCN1c1cc(NC(C)=O)nc(-c2ccccn2)n1`, the inhibition constant (Ki) in series [1] is 125 nM; in series [2], 50 nM. Also, in series [3], the Ratio Ki is 2.5.

Regarding `COC[C@H]1CCCN1c1cc(NC(=O)CC(C)C)nc(-n2nc(C)cc2C)n1`, the inhibitory constant (Ki) in series [1] is 92 nM; in series [2], 50 nM. Also, in series [3], the Ratio Ki turned out to be 2.

Take `CCOCC1CCCN1c1cc(NC(C)=O)nc(-n2nc(C)cc2C)n1` (centres undefined): the Ki in series [1] was determined as 4190 nM; in series [2], 455 nM. Further, in series [3], the Ratio Ki was 9.

With `COC[C@H]1CCCN1c1cc(NC(C)=O)nc(-n2nc(C)cc2C)n1`, the Ratio Ki in series [3] worked out at 34.

With `CC(=O)Nc1cc(N2CCC[C@@H]2COc2ccccn2)nc(-n2nc(C)cc2C)n1`, the figures for the Ki in series [1] and in series [2] were 64 nM and 40 nM, respectively. The Ratio Ki in series [3] came to 1.5.

Regarding `COC(=O)[C@@H]1CCCN1c1cc(NC(C)=O)nc(-n2nc(C)cc2C)n1`, in series [2], the Ki was > 10000 nM.

Consider `CCC(=O)Nc1cc(N2CCC[C@@H]2COC)nc(-n2nc(C)cc2C)n1`, for which the values for the inhibition constant Ki in series [1] and in series [2] were 64 nM and 5.9 nM, respectively. In series [3], the Ratio Ki stood at 11.

On to `COC[C@H]1CCCN1c1cc(N)nc(-n2nc(C)cc2C)n1`, for which the figures for the inhibitory constant (Ki) in series [1] and in series [2] were 2470 nM and 261 nM, respectively. Besides, the Ratio Ki in series [3] came to 9.5.

`COC[C@H]1CCCN1c1cc(NC(C)=O)nc(-n2nc(C)cc2C)n1.Cl`: the solubility in series [7] was > 6700 µg/mL.

In the case of `COC[C@H]1CCCN1c1cc(NC(C)=O)nc(-c2cccs2)n1`, the Ki in series [1] was 203 nM; in series [2], 47 nM. Moreover, in series [3], the Ratio Ki is 4.3.

Consider `COC[C@@H]1CCCN1c1cc(NC(C)=O)nc(-n2nc(C)cc2C)n1`, for which the Ki in series [1] is 4470 nM; in series [2], 324 nM. Besides, the Ratio Ki in series [3] was 14.

On to `CC(=O)Nc1cc(N2CCCC2=O)nc(-n2nc(C)cc2C)n1`, for which the results for the Ki in series [1] and in series [2] were 913 nM and 12 nM, respectively. In addition, the IC50 in series [6] was 1000 nM. The Ratio Ki in series [3] is 76.

Turning to `CC(=O)Nc1cc(N2CCN(C)CC2)nc(-n2nc(C)cc2C)n1`, the results for the inhibitory constant (Ki) in series [1] and in series [2] were > 10000 nM and 1870 nM, respectively.

Take `CC(=O)Nc1cc(N2CCOCC2)nc(-n2nc(C)cc2C)n1`: the Ki in series [1] came to 8120 nM; in series [2], 313 nM. Also, in series [3], the Ratio Ki stood at 26.

As for `CC(=O)Nc1cc(N2CCCCC2)nc(-n2nc(C)cc2C)n1`, the Ki stood at 3360 nM in series [1] and 78 nM in series [2]. Moreover, the Ratio Ki in series [3] came out at 43.

In the case of `COCC1CCCN1c1cc(NC(C)=O)nc(-n2nc(C)cc2C)n1` (centres undefined), the inhibition constant Ki in series [1] was 320 nM; in series [2] it was 9 nM. The Ratio Ki in series [3] turned out to be 35.
